Test results reported in paper PMC12340436 (The Journal of Biological Chemistry, 2025).

Assays:
RhsP2tox [1] = biological target: T1, RhsP2tox (Pseudomonas aeruginosa, UniProt A0A0H2Z8A2); format: binding
T1 construct: gene PA14_43100; N-terminal His tag

RhsP2tox [2] = biological target: T2, RhsP2tox (Pseudomonas aeruginosa, UniProt A0A0H2Z8A2, E1576Q); assay: biochemical
T2 construct: gene PA14_43100

Structure (SMILES): NC(=O)c1ccc[n+]([C@@H]2O[C@H](COP(=O)(O)OP(=O)(O)OC[C@H]3O[C@@H](n4cnc5c(N)ncnc54)[C@H](O)[C@@H]3O)[C@@H](O)[C@H]2O)c1 [NAD^+]
- Kd (RhsP2tox [1]): 172 ± 25 µM
- Kd (RhsP2tox [2]): 130 ± 38 µM
